Experiment in all cases: KinomeScan profiling
What all share (assay type): binding

One experiment addresses T1, AAK1 (Homo sapiens, UniProt Q2M2I8).
T1 construct: purchased KinomeScan®
Particulars: AAK1, 1 μM; read-out: % control. In short, it runs like this: (§1)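 Luminescence (RLU) was converted to percent of control, with DMSO set as 100% and a reference compound as 0%. Test compounds were run at 1 μM against 468 kinases. Kinases showing below 35% of control were scored as bound.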

The next experiment addresses T2, HUNK (Homo sapiens, UniProt P57058).
T2 sequence (P57058 1-714): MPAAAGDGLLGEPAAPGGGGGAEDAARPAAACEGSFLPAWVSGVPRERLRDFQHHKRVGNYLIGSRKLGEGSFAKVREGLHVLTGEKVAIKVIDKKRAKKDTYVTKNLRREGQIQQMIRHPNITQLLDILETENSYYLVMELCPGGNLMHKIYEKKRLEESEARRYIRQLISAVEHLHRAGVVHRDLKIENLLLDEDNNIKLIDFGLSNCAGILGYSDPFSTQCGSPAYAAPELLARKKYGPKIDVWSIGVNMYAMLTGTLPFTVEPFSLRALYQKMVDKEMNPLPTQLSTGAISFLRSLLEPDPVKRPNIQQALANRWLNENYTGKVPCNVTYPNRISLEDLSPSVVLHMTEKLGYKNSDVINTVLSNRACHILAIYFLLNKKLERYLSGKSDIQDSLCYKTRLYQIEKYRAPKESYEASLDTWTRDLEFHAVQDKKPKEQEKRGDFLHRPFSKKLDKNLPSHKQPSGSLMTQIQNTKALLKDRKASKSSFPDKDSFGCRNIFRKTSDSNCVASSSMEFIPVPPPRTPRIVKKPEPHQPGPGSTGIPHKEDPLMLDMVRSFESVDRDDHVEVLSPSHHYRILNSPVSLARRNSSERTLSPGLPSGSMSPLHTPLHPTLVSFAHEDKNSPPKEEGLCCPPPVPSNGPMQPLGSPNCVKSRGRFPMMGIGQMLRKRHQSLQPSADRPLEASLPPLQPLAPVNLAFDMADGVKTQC
The note with it: read-out: % control. In short, it runs like this:
as §1

For another experiment, the target named is T3, TEC (Homo sapiens, UniProt P42680).
T3 sequence (P42680 1-631): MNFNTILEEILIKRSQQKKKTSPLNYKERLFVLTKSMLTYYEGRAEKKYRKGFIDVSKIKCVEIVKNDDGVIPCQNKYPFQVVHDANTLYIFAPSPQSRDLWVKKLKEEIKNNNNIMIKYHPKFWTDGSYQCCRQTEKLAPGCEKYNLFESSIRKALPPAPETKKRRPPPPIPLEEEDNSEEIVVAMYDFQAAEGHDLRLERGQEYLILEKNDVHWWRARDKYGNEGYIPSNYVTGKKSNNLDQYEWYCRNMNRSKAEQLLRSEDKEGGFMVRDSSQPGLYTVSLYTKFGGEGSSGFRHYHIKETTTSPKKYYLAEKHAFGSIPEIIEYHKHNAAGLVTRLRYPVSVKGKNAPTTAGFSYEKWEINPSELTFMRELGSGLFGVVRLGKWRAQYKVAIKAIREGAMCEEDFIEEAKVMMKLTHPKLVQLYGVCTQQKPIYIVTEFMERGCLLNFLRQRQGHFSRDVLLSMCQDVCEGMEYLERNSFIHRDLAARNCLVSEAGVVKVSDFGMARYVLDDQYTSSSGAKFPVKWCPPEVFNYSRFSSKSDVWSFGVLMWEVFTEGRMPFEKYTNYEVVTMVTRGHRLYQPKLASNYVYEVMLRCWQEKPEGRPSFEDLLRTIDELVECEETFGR
Particulars: read-out: % control. In outline:
as §1

Another experiment has as its target PLK2 (Homo sapiens, UniProt Q9NYY3). Particulars: PLK2, 1 μM; read-out: % control. In outline: as §1
The target of experiment [1] is T4, ABL1(F317L)-nonphosphorylated (Homo sapiens, UniProt P00519, F317L).
T4 construct: purchased KinomeScan®
T4 sequence (P00519 whole entry F317L): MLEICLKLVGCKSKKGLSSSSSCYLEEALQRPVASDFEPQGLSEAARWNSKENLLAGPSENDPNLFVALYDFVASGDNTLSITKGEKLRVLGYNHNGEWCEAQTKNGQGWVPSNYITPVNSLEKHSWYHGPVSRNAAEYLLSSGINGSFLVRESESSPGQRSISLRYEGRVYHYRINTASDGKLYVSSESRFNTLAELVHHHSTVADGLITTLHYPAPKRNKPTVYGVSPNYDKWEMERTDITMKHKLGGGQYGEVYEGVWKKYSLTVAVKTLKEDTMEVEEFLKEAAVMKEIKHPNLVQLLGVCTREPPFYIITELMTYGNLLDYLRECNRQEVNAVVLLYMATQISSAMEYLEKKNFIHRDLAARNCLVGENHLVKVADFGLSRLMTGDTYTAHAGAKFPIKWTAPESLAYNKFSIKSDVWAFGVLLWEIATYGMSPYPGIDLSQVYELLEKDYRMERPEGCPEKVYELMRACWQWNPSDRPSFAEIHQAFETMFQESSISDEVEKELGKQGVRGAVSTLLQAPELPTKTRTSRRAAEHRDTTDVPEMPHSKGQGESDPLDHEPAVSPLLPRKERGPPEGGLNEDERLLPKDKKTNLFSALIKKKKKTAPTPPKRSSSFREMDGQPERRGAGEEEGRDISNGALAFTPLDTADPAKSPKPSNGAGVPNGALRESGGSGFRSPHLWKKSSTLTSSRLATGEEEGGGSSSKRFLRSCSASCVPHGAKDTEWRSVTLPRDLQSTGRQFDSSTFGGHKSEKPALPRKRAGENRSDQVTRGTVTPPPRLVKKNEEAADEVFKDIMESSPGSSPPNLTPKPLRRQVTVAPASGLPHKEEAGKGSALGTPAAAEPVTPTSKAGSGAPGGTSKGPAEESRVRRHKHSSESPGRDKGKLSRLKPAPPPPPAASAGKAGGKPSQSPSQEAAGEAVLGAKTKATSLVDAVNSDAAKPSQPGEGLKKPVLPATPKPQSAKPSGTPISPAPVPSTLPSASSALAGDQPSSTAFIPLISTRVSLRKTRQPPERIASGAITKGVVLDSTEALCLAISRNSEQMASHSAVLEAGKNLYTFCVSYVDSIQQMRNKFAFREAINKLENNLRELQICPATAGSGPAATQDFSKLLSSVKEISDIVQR
The note with it: read-out: % control. In short, it runs like this:
as §1

A further experiment concerns the target CIT (Homo sapiens, UniProt O14578). Particulars: read-out: % control. In outline: as §1
The target of the next experiment is T5, FLT3 (Homo sapiens, UniProt P36888).
T5 sequence (P36888 27-993): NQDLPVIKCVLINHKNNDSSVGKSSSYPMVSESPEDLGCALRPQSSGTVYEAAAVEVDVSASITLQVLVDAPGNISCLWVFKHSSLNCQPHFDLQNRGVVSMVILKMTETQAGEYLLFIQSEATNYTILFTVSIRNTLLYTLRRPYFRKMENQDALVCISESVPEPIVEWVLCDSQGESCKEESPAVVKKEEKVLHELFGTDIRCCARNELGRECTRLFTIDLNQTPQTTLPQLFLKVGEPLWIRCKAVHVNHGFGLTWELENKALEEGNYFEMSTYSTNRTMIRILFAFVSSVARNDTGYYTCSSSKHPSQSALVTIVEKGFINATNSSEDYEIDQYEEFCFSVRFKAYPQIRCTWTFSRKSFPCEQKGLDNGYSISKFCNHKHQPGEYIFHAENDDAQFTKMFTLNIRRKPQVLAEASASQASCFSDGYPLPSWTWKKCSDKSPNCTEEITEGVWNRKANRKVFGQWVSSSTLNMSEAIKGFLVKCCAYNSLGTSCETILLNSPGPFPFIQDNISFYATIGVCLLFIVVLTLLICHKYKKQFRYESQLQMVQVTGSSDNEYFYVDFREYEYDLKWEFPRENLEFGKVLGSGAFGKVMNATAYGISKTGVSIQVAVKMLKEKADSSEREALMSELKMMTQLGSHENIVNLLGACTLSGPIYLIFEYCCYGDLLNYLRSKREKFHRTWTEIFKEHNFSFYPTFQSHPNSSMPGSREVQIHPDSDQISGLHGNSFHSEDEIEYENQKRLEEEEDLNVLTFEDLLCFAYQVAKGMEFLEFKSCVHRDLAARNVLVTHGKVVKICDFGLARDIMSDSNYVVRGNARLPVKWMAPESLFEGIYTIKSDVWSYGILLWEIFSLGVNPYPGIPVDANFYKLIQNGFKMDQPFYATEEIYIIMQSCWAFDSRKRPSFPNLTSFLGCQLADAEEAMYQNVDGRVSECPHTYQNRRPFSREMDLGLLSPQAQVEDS
Particulars: FLT3, 1 μM; read-out: % control. In outline:
as §1

The next experiment concerns the target MKNK1 (Homo sapiens, UniProt Q9BUB5). The note with it: MKNK1, 1 μM; read-out: % control. In outline:
as §1

Sequence of CIT (O14578 whole entry): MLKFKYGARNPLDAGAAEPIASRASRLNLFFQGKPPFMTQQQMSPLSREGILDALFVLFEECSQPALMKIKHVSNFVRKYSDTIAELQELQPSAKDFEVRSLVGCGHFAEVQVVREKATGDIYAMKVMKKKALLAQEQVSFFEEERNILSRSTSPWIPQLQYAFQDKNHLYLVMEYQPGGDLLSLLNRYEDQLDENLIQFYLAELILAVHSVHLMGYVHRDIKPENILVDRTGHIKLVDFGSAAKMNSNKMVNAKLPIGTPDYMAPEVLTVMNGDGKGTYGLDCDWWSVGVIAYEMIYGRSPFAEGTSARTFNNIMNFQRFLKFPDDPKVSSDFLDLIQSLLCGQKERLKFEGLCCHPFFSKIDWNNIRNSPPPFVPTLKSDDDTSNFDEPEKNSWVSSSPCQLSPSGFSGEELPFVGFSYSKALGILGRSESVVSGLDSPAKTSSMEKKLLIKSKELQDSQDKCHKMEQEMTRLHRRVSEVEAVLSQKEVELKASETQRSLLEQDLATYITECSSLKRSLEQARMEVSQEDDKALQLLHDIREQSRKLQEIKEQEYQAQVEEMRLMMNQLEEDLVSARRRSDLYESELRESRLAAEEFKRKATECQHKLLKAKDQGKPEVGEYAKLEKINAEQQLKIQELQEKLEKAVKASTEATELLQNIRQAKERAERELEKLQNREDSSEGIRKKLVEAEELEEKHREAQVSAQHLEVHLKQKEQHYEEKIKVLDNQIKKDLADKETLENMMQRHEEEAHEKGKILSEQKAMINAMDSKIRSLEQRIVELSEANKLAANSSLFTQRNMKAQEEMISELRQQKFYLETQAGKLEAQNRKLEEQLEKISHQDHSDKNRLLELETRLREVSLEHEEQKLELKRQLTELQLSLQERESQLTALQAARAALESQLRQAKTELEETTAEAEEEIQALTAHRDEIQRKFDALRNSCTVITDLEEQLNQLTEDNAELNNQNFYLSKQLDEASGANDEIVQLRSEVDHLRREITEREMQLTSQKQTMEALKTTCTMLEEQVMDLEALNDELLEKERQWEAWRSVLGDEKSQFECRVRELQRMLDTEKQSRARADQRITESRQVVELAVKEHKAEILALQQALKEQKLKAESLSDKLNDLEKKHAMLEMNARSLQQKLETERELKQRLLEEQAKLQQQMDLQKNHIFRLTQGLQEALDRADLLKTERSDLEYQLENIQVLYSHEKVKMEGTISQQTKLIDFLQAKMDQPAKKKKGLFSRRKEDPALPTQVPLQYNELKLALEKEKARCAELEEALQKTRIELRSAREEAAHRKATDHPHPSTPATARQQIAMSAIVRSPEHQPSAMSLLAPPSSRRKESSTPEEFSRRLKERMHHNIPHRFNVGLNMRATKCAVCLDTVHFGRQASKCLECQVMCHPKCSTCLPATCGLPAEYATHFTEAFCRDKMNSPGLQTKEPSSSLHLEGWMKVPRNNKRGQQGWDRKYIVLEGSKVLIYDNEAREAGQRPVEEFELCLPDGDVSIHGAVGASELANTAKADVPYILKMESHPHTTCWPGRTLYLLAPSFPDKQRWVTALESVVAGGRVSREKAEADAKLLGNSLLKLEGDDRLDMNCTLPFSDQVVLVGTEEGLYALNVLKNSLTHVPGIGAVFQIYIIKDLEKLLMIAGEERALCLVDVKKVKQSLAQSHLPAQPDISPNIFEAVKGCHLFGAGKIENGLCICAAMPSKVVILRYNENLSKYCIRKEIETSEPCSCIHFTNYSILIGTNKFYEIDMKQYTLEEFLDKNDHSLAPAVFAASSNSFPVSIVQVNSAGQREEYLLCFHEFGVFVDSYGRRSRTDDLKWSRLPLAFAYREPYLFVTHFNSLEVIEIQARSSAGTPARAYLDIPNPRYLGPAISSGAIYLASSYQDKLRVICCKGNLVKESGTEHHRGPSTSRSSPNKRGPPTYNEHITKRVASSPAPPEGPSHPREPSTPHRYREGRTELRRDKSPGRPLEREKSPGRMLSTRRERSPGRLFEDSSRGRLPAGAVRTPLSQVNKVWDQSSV
Sequence of PLK2 (Q9NYY3 whole entry): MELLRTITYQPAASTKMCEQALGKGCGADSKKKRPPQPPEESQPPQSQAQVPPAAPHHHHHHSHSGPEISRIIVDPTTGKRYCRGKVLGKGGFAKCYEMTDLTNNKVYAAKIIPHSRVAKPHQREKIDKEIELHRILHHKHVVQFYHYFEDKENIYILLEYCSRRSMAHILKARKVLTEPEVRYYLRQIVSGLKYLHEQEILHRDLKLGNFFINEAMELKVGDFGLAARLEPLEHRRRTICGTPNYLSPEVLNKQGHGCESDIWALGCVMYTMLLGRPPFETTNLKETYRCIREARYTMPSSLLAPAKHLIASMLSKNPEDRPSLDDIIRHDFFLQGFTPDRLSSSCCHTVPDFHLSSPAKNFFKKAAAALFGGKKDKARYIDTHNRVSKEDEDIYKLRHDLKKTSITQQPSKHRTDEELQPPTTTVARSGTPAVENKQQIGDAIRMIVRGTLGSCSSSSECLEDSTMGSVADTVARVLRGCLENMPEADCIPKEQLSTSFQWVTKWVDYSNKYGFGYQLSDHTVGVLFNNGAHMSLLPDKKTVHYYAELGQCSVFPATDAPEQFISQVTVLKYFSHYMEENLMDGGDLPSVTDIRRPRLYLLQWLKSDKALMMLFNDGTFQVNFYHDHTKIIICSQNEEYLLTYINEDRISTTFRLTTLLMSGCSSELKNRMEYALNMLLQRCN
Sequence of MKNK1 (Q9BUB5 whole entry): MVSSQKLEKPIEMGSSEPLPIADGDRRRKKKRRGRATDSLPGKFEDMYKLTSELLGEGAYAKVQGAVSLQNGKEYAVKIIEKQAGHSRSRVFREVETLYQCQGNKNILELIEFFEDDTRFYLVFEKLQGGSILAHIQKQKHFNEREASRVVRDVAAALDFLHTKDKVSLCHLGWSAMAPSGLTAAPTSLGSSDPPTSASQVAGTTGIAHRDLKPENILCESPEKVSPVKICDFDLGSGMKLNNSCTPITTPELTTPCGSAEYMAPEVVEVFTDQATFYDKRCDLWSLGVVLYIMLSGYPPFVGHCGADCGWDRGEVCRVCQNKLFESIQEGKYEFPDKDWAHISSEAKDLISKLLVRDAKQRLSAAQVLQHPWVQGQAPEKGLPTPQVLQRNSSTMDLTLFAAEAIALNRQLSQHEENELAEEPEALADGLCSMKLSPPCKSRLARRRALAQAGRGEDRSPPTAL

For the compound `CNc1c(-c2ccc(C(=O)N3CCC(N4CCOCC4)CC3)cc2)cnc2[nH]cc(Cl)c12` [Compound 96, (4-(3-chloro-4-(methylamino)-1H-pyrrolo[2,3-b]pyridin-5-yl)phenyl)(4-morpholinopiperidin-1-yl)methanone], the remaining binding at 1 µM on AAK1 was 23%; at HUNK, 100%; on TEC, 100%; at PLK2, 100%; in experiment [1] it was 100%; on CIT, 11%. Moreover, the remaining binding at 1 µM is 6.7% on FLT3 and 100% at MKNK1.
Take `O=C(c1ccc(-c2cnc3[nH]cc(Cl)c3c2NC2CCCC2)cc1)N1CCC(N2CCOCC2)CC1` [Compound 101, (4-(3-chloro-4-(cyclopentylamino)-1H-pyrrolo[2,3-b]pyridin-5-yl)phenyl)(4-morpholinopiperidin-1-yl)methanone]: the remaining binding at 1 µM was found to be 67% on AAK1; 100% at HUNK; 93% at TEC; 100% at PLK2; 10% in experiment [1]; 21% on CIT. The remaining binding at 1 µM amounted to 4.9% at FLT3 and 100% at MKNK1.
Regarding `CNc1c(-c2cnn([C@H]3CCN(C(C)=O)C[C@@H]3F)c2)cnc2[nH]cc(Cl)c12` [Compound 77, 1-((3S,4S)-4-(4-(3-chloro-4-(methylamino)-1H-pyrrolo[2,3-b]pyridin-5-yl)-1H-pyrazol-1-yl)-3-fluoropiperidin-1-yl)ethan-1-one], the remaining binding at 1 µM on AAK1 amounted to 36%; on HUNK, 100%; on TEC, 100%; at PLK2, 85%; in experiment [1], 95%; on CIT it was 6.8%. In addition, the remaining binding at 1 µM at FLT3 stood at 3.3%; on MKNK1, 97%.

(Values after patent US12275731B2, “Azaindole inhibitors of wild-type and mutant forms of LRRK2” (DANA-FARBER CANCER INSTITUTE, INC., priority 2018, dated 2025).)
